≈ marks a conversion by molar mass, not a printed value. Calls of active or inactive are those of the source. The calls are words filed in the database; no cut-off is given here.
How the values were obtained:
HT-29 [1] = test: Induction of cell cycle arrest in human HT-29 cells assessed as accumulation of cells at G0/G1 phase at 1 nM after 24 to 72 hrs by propidium iodide staining-based flow cytometric analysis; assay type: functional; details: time 24-72 hrs
HL-60 [2] = test: Induction of cell cycle arrest in human HL-60 cells assessed as accumulation of cells at G2/M phase at 100 nM after 72 hrs by propidium iodide staining-based flow cytometric analysis; assay type: functional
HEK293 [3] = test: Induction of apoptosis in human HEK293 cells; assay type: cell-based
HT-29 [4] = test: Induction of cell cycle arrest in human HT-29 cells assessed as accumulation of cells at G2/M phase at 1 nM after 24 to 72 hrs by propidium iodide staining-based flow cytometric analysis; assay type: functional; details: time 24-72 hrs
HT-29 [5] = test: Induction of cell cycle arrest in human HT-29 cells assessed as accumulation of cells at G2/M phase at 100 nM after 48 hrs by propidium iodide staining-based flow cytometric analysis; assay type: functional
HL-60 [6] = test: Induction of apoptosis in human HL-60 cells assessed as increase in cell accumulation at sub-G0/G1 phase at 100 nM incubated for 48 hrs by propidium iodide staining based flow cytometry; assay type: functional
HL-60 [7] = test: Induction of cell cycle arrest in human HL-60 cells assessed as accumulation of cells at S phase at 1 nM after 24 to 72 hrs by propidium iodide staining-based flow cytometric analysis; assay type: functional; details: time 24-72 hrs
HL-60 [8] = test: Induction of cell cycle arrest in human HL-60 cells assessed as accumulation of cells at G2/M phase at 1 nM after 24 to 72 hrs by propidium iodide staining-based flow cytometric analysis; assay type: functional; details: time 24-72 hrs
HeLa [9] = test: Antiproliferative activity against human HeLa cells assessed as inhibition of cell growth after 72 hrs by XTT assay; assay type: functional, cell-based
HeLa [10] = test: Induction of mitotic arrest in human HeLa cells assessed as increase in MPM-2 expression at 1 uM incubated for 24 to 48 hrs by Western blot analysis; assay type: functional, cell-based; details: time 24-48 hrs
HeLa [11] = test: Induction of cell cycle arrest in human HeLa cells assessed as accumulation of cells at S phase at 1 nM after 24 to 72 hrs by propidium iodide staining-based flow cytometric analysis; assay type: functional; details: time 24-72 hrs
HL-60 [12] = test: Induction of cell cycle arrest in human HL-60 cells assessed as accumulation of cells at G2/M phase at 100 nM after 48 hrs by propidium iodide staining-based flow cytometric analysis; assay type: functional
HeLa [13] = test: Induction of cell cycle arrest in human HeLa cells assessed as accumulation of cells at G2/M phase after 24 hrs by propidium iodide staining-based flow cytometric analysis; assay type: functional
HeLa [14] = test: Induction of cell cycle arrest in human HeLa cells assessed as accumulation of cells at Sub-G0/G1 phase at 1 nM after 24 to 72 hrs by propidium iodide staining-based flow cytometric analysis; assay type: functional; details: time 24-72 hrs
HL-60 [15] = test: Induction of apoptosis in human HL-60 cells assessed as increase in cell accumulation at sub-G0/G1 phase at 100 nM incubated for 72 hrs by propidium iodide staining based flow cytometry; assay type: functional
HeLa [16] = test: Induction of apoptosis in human HeLa cells assessed as increase in cell accumulation at sub-G0/G1 phase at 100 nM incubated for 48 hrs by propidium iodide staining based flow cytometry; assay type: functional
[17] = Inhibition of bovine brain tubulin polymerization incubated for 30 mins by turbidimetric assay; assay type: tissue-based, Bos taurus
HT-29 [18] = test: Induction of cell cycle arrest in human HT-29 cells assessed as accumulation of cells at G2/M phase after 24 hrs by propidium iodide staining-based flow cytometric analysis; assay type: functional
HeLa [19] = test: Induction of cell cycle arrest in human HeLa cells assessed as accumulation of cells at G2/M phase at 100 nM after 48 hrs by propidium iodide staining-based flow cytometric analysis; assay type: functional
Tubulin (Homo sapiens) = Tubulin (Homo sapiens) (UniProt P68371+Q9H4B7+P0DPH7+P68366+Q13509+Q71U36+P04350+Q3ZCM7+P07437+P68363+Q9BQE3+Q6PEY2+Q13885+Q9BVA1+Q9BUF5); test: Induction of microtubule disruption in human HeLa cells at 1 uM measured after 24 hrs by immunofluorescence staining based confocal microscopic analysis; assay type: cell-based
HeLa [20] = test: Induction of cell cycle arrest in human HeLa cells assessed as accumulation of cells at G2/M phase at 1 nM after 24 to 72 hrs by propidium iodide staining-based flow cytometric analysis; assay type: functional; details: time 24-72 hrs
HEK293 [21] = test: Induction of mitotic arrest in human HEK293 cells; assay type: cell-based
HeLa [22] = test: Induction of apoptosis in human HeLa cells assessed as increase in cell accumulation at sub-G0/G1 phase at 100 nM incubated for 72 hrs by propidium iodide staining based flow cytometry; assay type: functional
HT-29 [23] = test: Induction of cell cycle arrest in human HT-29 cells assessed as accumulation of cells at G2/M phase at 100 nM after 72 hrs by propidium iodide staining-based flow cytometric analysis; assay type: functional
HeLa [24] = test: Induction of apoptosis in human HeLa cells assessed as increase in cell accumulation at sub-G0/G1 phase at 100 nM incubated for 24 hrs by propidium iodide staining based flow cytometry; assay type: functional
HL-60 [25] = test: Induction of cell cycle arrest in human HL-60 cells assessed as accumulation of cells at Sub-G0/G1 phase at 1 nM after 24 to 72 hrs by propidium iodide staining-based flow cytometric analysis; assay type: functional; details: time 24-72 hrs
HT-29 [26] = test: Induction of cell cycle arrest in human HT-29 cells assessed as accumulation of cells at Sub-G0/G1 phase at 1 nM after 24 to 72 hrs by propidium iodide staining-based flow cytometric analysis; assay type: functional; details: time 24-72 hrs
HeLa [27] = test: Induction of cell cycle arrest in human HeLa cells assessed as accumulation of cells at G2/M phase at 100 nM after 24 hrs by propidium iodide staining-based flow cytometric analysis; assay type: functional
HeLa [28] = test: Induction of apoptosis in human HeLa cells assessed as accumulation of cells at sub-G0/G1 phase after 24 hrs by propidium iodide staining-based flow cytometric analysis; assay type: functional, cell-based
[29] = Aqueous solubility of the compound in pH 7.0 phosphate buffer at 2 mg incubated for 72 hrs by shake flask method; assay type: physicochemical
HT-29 [30] = test: Induction of cell cycle arrest in human HT-29 cells assessed as accumulation of cells at S phase at 1 nM after 24 to 72 hrs by propidium iodide staining-based flow cytometric analysis; assay type: functional; details: time 24-72 hrs
HL-60 [31] = test: Antiproliferative activity against human HL-60 cells assessed as inhibition of cell growth after 72 hrs by XTT assay; assay type: functional, cell-based; details: HL-60, 72 h
HeLa [32] = test: Induction of apoptosis in human HeLa cells assessed as increase in cleaved PARP level at 1 uM after 24 to 48 hrs by Western blot analysis; assay type: functional, cell-based; details: time 24-48 hrs
HeLa [33] = test: Induction of cell cycle arrest in human HeLa cells assessed as accumulation of cells at G2/M phase at 100 nM after 72 hrs by propidium iodide staining-based flow cytometric analysis; assay type: functional
HL-60 [34] = test: Induction of cell cycle arrest in human HL-60 cells assessed as accumulation of cells at G2/M phase at 100 nM after 24 hrs by propidium iodide staining-based flow cytometric analysis; assay type: functional
HeLa [35] = test: Induction of cell cycle arrest in human HeLa cells assessed as accumulation of cells at G0/G1 phase at 1 nM after 24 to 72 hrs by propidium iodide staining-based flow cytometric analysis; assay type: functional; details: time 24-72 hrs
HT-29 [36] = test: Antiproliferative activity against human HT-29 cells assessed as inhibition of cell growth after 72 hrs by XTT assay; assay type: functional, cell-based; details: HT-29, 72 h
HL-60 [37] = test: Induction of cell cycle arrest in human HL-60 cells assessed as accumulation of cells at G0/G1 phase at 1 nM after 24 to 72 hrs by propidium iodide staining-based flow cytometric analysis; assay type: functional; details: time 24-72 hrs

With `C=C(c1cc(Cl)nc(SC)c1)c1ccc2c(c1)c(C=O)cn2C` the Activity (HT-29 [1]) was “inactive”, the Activity (HL-60 [2]) was 22% and the Activity (HEK293 [3]) was “Non-Toxic”. The Activity (HT-29 [4]) was “inactive”, the Activity (HT-29 [5]) was 11.8% and the Activity (HL-60 [6]) was 20.9%. For the same molecule, the Activity (HL-60 [7]) was “inactive”, the Activity (HL-60 [8]) was “inactive” and the IC50 (HeLa [9]) was 72 nM. For the same molecule, the Activity (HeLa [10]) was “Active”, the Activity (HeLa [11]) was “inactive” and the Activity (HL-60 [12]) was 40.5%. The Activity (HeLa [13]) was “Active”, the Activity (HeLa [14]) was “inactive” and the Activity (HL-60 [15]) was 32.6%. The Activity (HeLa [16]) was 47.6%, the IC50 [17] was 1600 nM and the Activity (HT-29 [18]) was “inactive”. For the same molecule, the Activity (HeLa [19]) was 30.4%, the Activity (Tubulin (Homo sapiens)) was “Active” and the Activity (HeLa [20]) was “inactive”. For the same molecule, the Activity (HEK293 [21]) was “Toxic”, the Activity (HeLa [22]) was 59.1% and the Activity (HT-29 [23]) was 15.1%. For the same molecule, the Activity (HeLa [24]) was 25.2%, the Activity (HL-60 [25]) was “inactive” and the Activity (HT-29 [26]) was “inactive”. The Activity (HeLa [27]) was 56.9%, the Activity (HeLa [28]) was “Active” and the solubility thermodynamic at 72 h [29] was 6.3 µg/mL (≈ 18.4 µM). For the same molecule, the Activity (HT-29 [30]) was “inactive”, the IC50 (HL-60 [31]) was 38 nM and the Activity (HeLa [32]) was “Active”. The Activity (HeLa [33]) was 7.9%, the Activity (HL-60 [34]) was 80.1% and the Activity (HeLa [35]) was “inactive”. The IC50 (HT-29 [36]) was 876 nM and the Activity (HL-60 [37]) was “inactive”.

— ChEMBL document CHEMBL4732128, “Methylsulfanylpyridine based diheteroaryl isocombretastatin analogs as potent anti-proliferative agents” (Eur J Med Chem, 2021)
